What follows are molecules tested on Panicum (assay: Pre-emergence herbicidal action (Example B1)). Conditions: 250 g/ha, after 4 weeks, rating scale 10=total damage, 0=no action.
Type: in vivo
Procedure: (§1) Monocotyledonous and dicotyledonous test plants are sown in standard soil in pots or seed trays. Immediately after sowing, the test compounds, in the form of an aqueous suspension (prepared from a wettable powder (Example F3, b) according to WO 97/34485) or in the form of an emulsion (prepared from an emulsifiable concentrate (Example F1, c) according to WO 97/34485), are applied by spraying in a concentration of 250 g/ha. The test plants are then grown in a greenhouse under optimum conditions. After a test duration of 4 weeks, the test is evaluated in accordance with a scale of eleven ratings (10=total damage, 0=no action). Ratings of from 10 to 7 (especially from 10 to 8) indicate very good to good herbicidal action.

Question: How did the “Pre-emergence action: Panicum” value turn out when CCC(=O)N(C)c1nc(C(=O)C2=C(O)C(C)(C)C(=O)C(C)(C)C2=O)ccc1C(F)(F)F [Compound 2.089] was run?
Answer: Its value is 9.

Question: How did the “Pre-emergence action: Panicum” value turn out when Cc1nc(C(=O)C2=C(O)C(C)(C)C(=O)C(C)(C)C2=O)ccc1C(F)(F)F [Compound 2.203] was run?
Answer: The value was 6.

The molecules below were run on Digitaria (assay: Pre-emergence herbicidal action (Example B1)). Conditions: 250 g/ha, after 4 weeks, rating scale 10=total damage, 0=no action.
Type: in vivo
Procedure: as §1

Question: With CCC(=O)N(C)c1nc(C(=O)C2=C(O)C(C)(C)C(=O)C(C)(C)C2=O)ccc1C(F)(F)F [Compound 2.089] as the molecule, how does the “Pre-emergence action: Digitaria” value read?
Answer: Its value is 8.

Question: With Cc1nc(C(=O)C2=C(O)C(C)(C)C(=O)C(C)(C)C2=O)ccc1C(F)(F)F [Compound 2.203] as the molecule, how does the “Pre-emergence action: Digitaria” value read?
Answer: The value was 5.

Each molecule was assayed on Chenopodium (assay: Pre-emergence herbicidal action (Example B1)). Conditions: 250 g/ha, after 4 weeks, rating scale 10=total damage, 0=no action.
Type: in vivo
Procedure: as §1

Question: For CCC(=O)N(C)c1nc(C(=O)C2=C(O)C(C)(C)C(=O)C(C)(C)C2=O)ccc1C(F)(F)F [Compound 2.089], which “Pre-emergence action: Chenopodium” value is on record?
Answer: The value was 0.

These molecules were tested on Scirpus (assay: Pre-emergence herbicidal action (Example B1)). Conditions: 250 g/ha, after 4 weeks, rating scale 10=total damage, 0=no action.
Type: in vivo
Procedure: as §1

Question: How did the “Pre-emergence action: Scirpus” value turn out when Cc1nc(C(=O)C2=C(O)C(C)(C)C(=O)C(C)(C)C2=O)ccc1C(F)(F)F [Compound 2.203] was run?
Answer: Its value is 8.

What follows are molecules tested on Abutilon (assay: Pre-emergence herbicidal action (Example B1)). Conditions: 250 g/ha, after 4 weeks, rating scale 10=total damage, 0=no action.
Type: in vivo
Procedure: as §1

Question: For CCC(=O)N(C)c1nc(C(=O)C2=C(O)C(C)(C)C(=O)C(C)(C)C2=O)ccc1C(F)(F)F [Compound 2.089], which “Pre-emergence action: Abutilon” value is on record?
Answer: The value was 9.

Question: For Cc1nc(C(=O)C2=C(O)C(C)(C)C(=O)C(C)(C)C2=O)ccc1C(F)(F)F [Compound 2.203], which “Pre-emergence action: Abutilon” value is on record?
Answer: Its value is 10.

Each molecule was assayed on Amaranthus (assay: Pre-emergence herbicidal action (Example B1)). Conditions: 250 g/ha, after 4 weeks, rating scale 10=total damage, 0=no action.
Type: in vivo
Procedure: as §1

Question: How did the “Pre-emergence action: Amaranthus” value turn out when CCC(=O)N(C)c1nc(C(=O)C2=C(O)C(C)(C)C(=O)C(C)(C)C2=O)ccc1C(F)(F)F [Compound 2.089] was run?
Answer: The value was 8.

Question: Which “Pre-emergence action: Amaranthus” value does the source give for Cc1nc(C(=O)C2=C(O)C(C)(C)C(=O)C(C)(C)C2=O)ccc1C(F)(F)F [Compound 2.203] here?
Answer: The value was 9.

The molecules below were run on Echinochloa (assay: Pre-emergence herbicidal action (Example B1)). Conditions: 250 g/ha, after 4 weeks, rating scale 10=total damage, 0=no action.
Type: in vivo
Procedure: as §1

Question: With CCC(=O)N(C)c1nc(C(=O)C2=C(O)C(C)(C)C(=O)C(C)(C)C2=O)ccc1C(F)(F)F [Compound 2.089] as the molecule, how does the “Pre-emergence action: Echinochloa” value read?
Answer: Its value is 8.

Question: For Cc1nc(C(=O)C2=C(O)C(C)(C)C(=O)C(C)(C)C2=O)ccc1C(F)(F)F [Compound 2.203], which “Pre-emergence action: Echinochloa” value is on record?
Answer: Its value is 9.

These molecules were tested on Digitaria (assay: Microscreen, post-emergence herbicidal action (Example B3)). Conditions: 250 g/ha, evaluated after 9 or 13 days, scale of eleven ratings (10=total damage, 0=no action).
Type: in vivo
Procedure: (§2) Example B3 Microscreen, Post-Emergence Herbicidal Action Monocotyledonous and dicotyledonous test plants are sown in sterilised standard soil in seed trays each having 96 cells. After 8 to 9 days' cultivation under controlled conditions in a climatic chamber (cultivation at 17/23° C.; 13 hours' light; 50-60% humidity; after application at 19/24° C.), the plants are treated with an aqueous spray solution of 1000 mg/l of the active ingredient used ([…]; incl. 10% DMSO as solvent). The plants are grown on in the climatic chamber until the test is evaluated after 9 or 13 days. The test is evaluated in accordance with a scale of eleven ratings (10=total damage, 0=no action). Ratings of from 10 to 7 (especially from 10 to 8) indicate very good to good herbicidal action.

Question: Which “Digitaria, herbicidal action rating” value does the source give for CC1(c2nc(C(=O)C3=C(O)CCCC3=O)ccc2C(F)(F)F)OCCO1 [Compound 1.192] here?
Answer: Its value is 7.

Question: Which “Digitaria, herbicidal action rating” value does the source give for Cc1cc(-c2nc(C(=O)C3=C(O)CCCC3=O)ccc2C(F)(F)F)on1 [Compound 1.204] here?
Answer: The value was 8.

The molecules below were run on Stellaria in the same assay as above. Conditions: 250 g/ha, evaluated after 9 or 13 days, scale of eleven ratings (10=total damage, 0=no action).
Type: in vivo
Procedure: as §2

Question: Which “Stellaria, herbicidal action rating” value does the source give for CC1(c2nc(C(=O)C3=C(O)CCCC3=O)ccc2C(F)(F)F)OCCO1 [Compound 1.192] here?
Answer: Its value is 9.

Question: Cc1cc(-c2nc(C(=O)C3=C(O)CCCC3=O)ccc2C(F)(F)F)on1 [Compound 1.204] was tested. Which “Stellaria, herbicidal action rating” value did it give?
Answer: Its value is 10.

These molecules were tested on Solanum in the same assay as above. Conditions: 250 g/ha, evaluated after 9 or 13 days, scale of eleven ratings (10=total damage, 0=no action).
Type: in vivo
Procedure: (§3) Example B3 Microscreen, Post-Emergence Herbicidal Action Monocotyledonous and dicotyledonous test plants are sown in sterilised standard soil in seed trays each having 96 cells. […] The plants are grown on in the climatic chamber until the test is evaluated after 9 or 13 days. The test is evaluated in accordance with a scale of eleven ratings (10=total damage, 0=no action). Ratings of from 10 to 7 (especially from 10 to 8) indicate very good to good herbicidal action.

Question: CC1(c2nc(C(=O)C3=C(O)CCCC3=O)ccc2C(F)(F)F)OCCO1 [Compound 1.192] was tested. Which “Solanum, herbicidal action rating” value did it give?
Answer: The value was 9.

Question: With Cc1cc(-c2nc(C(=O)C3=C(O)CCCC3=O)ccc2C(F)(F)F)on1 [Compound 1.204] as the molecule, how does the “Solanum, herbicidal action rating” value read?
Answer: The value was 10.

What follows are molecules tested on Amaranthus in the same assay as above. Conditions: 250 g/ha, evaluated after 9 or 13 days, scale of eleven ratings (10=total damage, 0=no action).
Type: in vivo
Procedure: as §3

Question: For CC1(c2nc(C(=O)C3=C(O)CCCC3=O)ccc2C(F)(F)F)OCCO1 [Compound 1.192], which “Amaranthus, herbicidal action rating” value is on record?
Answer: The value was 8.

Question: For Cc1cc(-c2nc(C(=O)C3=C(O)CCCC3=O)ccc2C(F)(F)F)on1 [Compound 1.204], which “Amaranthus, herbicidal action rating” value is on record?
Answer: Its value is 10.

These molecules were tested on Nasturtium in the same assay as above. Conditions: 250 g/ha, evaluated after 9 or 13 days, scale of eleven ratings (10=total damage, 0=no action).
Type: in vivo
Procedure: as §3

Question: How did the “Nasturtium, herbicidal action rating” value turn out when CC1(c2nc(C(=O)C3=C(O)CCCC3=O)ccc2C(F)(F)F)OCCO1 [Compound 1.192] was run?
Answer: Its value is 10.

Question: Cc1cc(-c2nc(C(=O)C3=C(O)CCCC3=O)ccc2C(F)(F)F)on1 [Compound 1.204] was tested. Which “Nasturtium, herbicidal action rating” value did it give?
Answer: The value was 10.

What follows are molecules tested on Panicum (assay: Post-emergence herbicidal action (Example B2)). Conditions: 250 g/ha, after about 18 days, rating scale 10=total damage, 0=no action.
Type: in vivo
Description: (§4) Monocotyledonous and dicotyledonous test plants are cultivated in a greenhouse in standard soil in plastic pots and, at the 4- to 6-leaf stage, are sprayed with an aqueous suspension of the test compounds of formula I prepared from a 25% wettable powder (Example F3, b) according to WO 97/34485) or with an emulsion of the test compounds of formula I prepared from a 25% emulsifiable concentrate (Example F1, c) according to WO 97/34485), corresponding to concentrations of 125 and 250 g of active ingredient per hectare (500 litres of water per ha). The test plants are then grown on in the greenhouse under optimum conditions. After a test duration of about 18 days, the test is evaluated in accordance with a scale of eleven ratings (10=total damage, 0=no action). Ratings of from 10 to 7 (especially from 10 to 8) indicate very good to good herbicidal action.

Question: With CCC(=O)N(C)c1nc(C(=O)C2=C(O)C(C)(C)C(=O)C(C)(C)C2=O)ccc1C(F)(F)F [Compound 2.089] as the molecule, how does the “Post-emergence action: Panicum” value read?
Answer: The value was 8.

Question: For Cc1nc(C(=O)C2=C(O)C(C)(C)C(=O)C(C)(C)C2=O)ccc1C(F)(F)F [Compound 2.203], which “Post-emergence action: Panicum” value is on record?
Answer: The value was 9.

What follows are molecules tested on Chenopodium (assay: Post-emergence herbicidal action (Example B2)). Conditions: 250 g/ha, after about 18 days, rating scale 10=total damage, 0=no action.
Type: in vivo
Description: as §4

Question: How did the “Post-emergence action: Chenopodium” value turn out when CCC(=O)N(C)c1nc(C(=O)C2=C(O)C(C)(C)C(=O)C(C)(C)C2=O)ccc1C(F)(F)F [Compound 2.089] was run?
Answer: The value was 9.

Question: With Cc1nc(C(=O)C2=C(O)C(C)(C)C(=O)C(C)(C)C2=O)ccc1C(F)(F)F [Compound 2.203] as the molecule, how does the “Post-emergence action: Chenopodium” value read?
Answer: Its value is 6.

These molecules were tested on Stellaria (assay: Post-emergence herbicidal action (Example B2)). Conditions: 250 g/ha, after about 18 days, rating scale 10=total damage, 0=no action.
Type: in vivo
Description: as §4

Question: How did the “Post-emergence action: Stellaria” value turn out when CCC(=O)N(C)c1nc(C(=O)C2=C(O)C(C)(C)C(=O)C(C)(C)C2=O)ccc1C(F)(F)F [Compound 2.089] was run?
Answer: Its value is 8.

Question: Cc1nc(C(=O)C2=C(O)C(C)(C)C(=O)C(C)(C)C2=O)ccc1C(F)(F)F [Compound 2.203] was tested. Which “Post-emergence action: Stellaria” value did it give?
Answer: Its value is 9.

The molecules below were run on Amaranthus (assay: Post-emergence herbicidal action (Example B2)). Conditions: 250 g/ha, after about 18 days, rating scale 10=total damage, 0=no action.
Type: in vivo
Description: as §4

Question: How did the “Post-emergence action: Amaranthus” value turn out when CCC(=O)N(C)c1nc(C(=O)C2=C(O)C(C)(C)C(=O)C(C)(C)C2=O)ccc1C(F)(F)F [Compound 2.089] was run?
Answer: Its value is 0.

Question: With Cc1nc(C(=O)C2=C(O)C(C)(C)C(=O)C(C)(C)C2=O)ccc1C(F)(F)F [Compound 2.203] as the molecule, how does the “Post-emergence action: Amaranthus” value read?
Answer: The value was 6.

These molecules were tested on Euphorbia (assay: Post-emergence herbicidal action (Example B2)). Conditions: 250 g/ha, after about 18 days, rating scale 10=total damage, 0=no action.
Type: in vivo
Description: as §4

Question: How did the “Post-emergence action: Euphorbia” value turn out when CCC(=O)N(C)c1nc(C(=O)C2=C(O)C(C)(C)C(=O)C(C)(C)C2=O)ccc1C(F)(F)F [Compound 2.089] was run?
Answer: The value was 8.

Question: For Cc1nc(C(=O)C2=C(O)C(C)(C)C(=O)C(C)(C)C2=O)ccc1C(F)(F)F [Compound 2.203], which “Post-emergence action: Euphorbia” value is on record?
Answer: The value was 9.

Each molecule was assayed on Echinochloa (assay: Post-emergence herbicidal action (Example B2)). Conditions: 250 g/ha, after about 18 days, rating scale 10=total damage, 0=no action.
Type: in vivo
Description: as §4

Question: Which “Post-emergence action: Echinochloa” value does the source give for CCC(=O)N(C)c1nc(C(=O)C2=C(O)C(C)(C)C(=O)C(C)(C)C2=O)ccc1C(F)(F)F [Compound 2.089] here?
Answer: Its value is 7.

Question: With Cc1nc(C(=O)C2=C(O)C(C)(C)C(=O)C(C)(C)C2=O)ccc1C(F)(F)F [Compound 2.203] as the molecule, how does the “Post-emergence action: Echinochloa” value read?
Answer: Its value is 9.

The molecules below were run on Xanthium (assay: Post-emergence herbicidal action (Example B2)). Conditions: 250 g/ha, after about 18 days, rating scale 10=total damage, 0=no action.
Type: in vivo
Description: as §4

Question: How did the “Post-emergence action: Xanthium” value turn out when CCC(=O)N(C)c1nc(C(=O)C2=C(O)C(C)(C)C(=O)C(C)(C)C2=O)ccc1C(F)(F)F [Compound 2.089] was run?
Answer: Its value is 7.

Question: With Cc1nc(C(=O)C2=C(O)C(C)(C)C(=O)C(C)(C)C2=O)ccc1C(F)(F)F [Compound 2.203] as the molecule, how does the “Post-emergence action: Xanthium” value read?
Answer: The value was 9.

Reference: patent US20070167631A1, “Novel herbicides” (priority 2003, published 2007)
